# In patent US20080176936A1, “Classes of Compounds that Interact with Integrins” (priority 2005, published 2008):
# Biological target: T1, αllbβ3 integrin (Homo sapiens, UniProt P05106+P08514)
# T1 construct: Human platelet membrane preparations were used as a source of αllbβ3 integrin; from tissue; host or cells: human platelets (membrane preparation)
# Assay: ELISA: inhibition of binding of αllbβ3 integrin membrane preparation to coated extracellular matrix protein
# Conditions: substrate fibrinogen, human platelet membrane preparation
# Method in brief: (§1)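 Wells were coated with fibrinogen or vitronectin (10 µg/well), and integrin binding was measured by ELISA. αIIbβ3 came from human platelet membranes and αVβ3 from WM-115 cells, each preincubated with compound. Bound integrin was detected with a rabbit anti-β3 antibody, an HRP secondary and a colorimetric readout.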
# T1 sequence (P08514 32-887 limits assumed): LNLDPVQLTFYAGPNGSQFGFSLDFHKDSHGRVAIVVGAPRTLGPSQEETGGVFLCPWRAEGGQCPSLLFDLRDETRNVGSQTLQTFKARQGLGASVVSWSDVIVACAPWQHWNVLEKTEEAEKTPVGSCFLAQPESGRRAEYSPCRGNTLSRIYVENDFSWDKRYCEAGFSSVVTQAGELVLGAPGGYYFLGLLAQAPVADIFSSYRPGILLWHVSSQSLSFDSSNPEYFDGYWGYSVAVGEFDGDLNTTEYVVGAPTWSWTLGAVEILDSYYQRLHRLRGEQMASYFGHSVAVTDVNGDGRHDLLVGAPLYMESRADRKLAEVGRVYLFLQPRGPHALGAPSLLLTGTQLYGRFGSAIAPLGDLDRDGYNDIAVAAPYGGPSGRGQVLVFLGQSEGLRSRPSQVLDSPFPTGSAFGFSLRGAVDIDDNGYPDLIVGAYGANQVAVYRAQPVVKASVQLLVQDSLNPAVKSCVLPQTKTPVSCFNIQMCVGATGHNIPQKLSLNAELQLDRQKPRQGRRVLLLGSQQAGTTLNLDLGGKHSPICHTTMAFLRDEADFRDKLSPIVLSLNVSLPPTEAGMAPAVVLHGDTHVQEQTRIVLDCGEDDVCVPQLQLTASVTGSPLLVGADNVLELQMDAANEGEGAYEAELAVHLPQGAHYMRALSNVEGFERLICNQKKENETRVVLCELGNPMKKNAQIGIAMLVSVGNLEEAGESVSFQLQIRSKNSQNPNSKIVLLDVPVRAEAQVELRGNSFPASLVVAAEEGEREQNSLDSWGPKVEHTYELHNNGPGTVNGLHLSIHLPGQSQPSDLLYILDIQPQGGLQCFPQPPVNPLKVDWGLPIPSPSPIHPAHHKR
# T1 sequence (P08514 891-1039 partner limits assumed): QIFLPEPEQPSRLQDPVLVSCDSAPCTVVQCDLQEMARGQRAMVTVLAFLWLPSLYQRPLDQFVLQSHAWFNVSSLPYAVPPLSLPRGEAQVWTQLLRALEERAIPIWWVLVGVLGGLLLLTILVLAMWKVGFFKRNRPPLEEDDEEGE
# T1 sequence (P05106 27-788): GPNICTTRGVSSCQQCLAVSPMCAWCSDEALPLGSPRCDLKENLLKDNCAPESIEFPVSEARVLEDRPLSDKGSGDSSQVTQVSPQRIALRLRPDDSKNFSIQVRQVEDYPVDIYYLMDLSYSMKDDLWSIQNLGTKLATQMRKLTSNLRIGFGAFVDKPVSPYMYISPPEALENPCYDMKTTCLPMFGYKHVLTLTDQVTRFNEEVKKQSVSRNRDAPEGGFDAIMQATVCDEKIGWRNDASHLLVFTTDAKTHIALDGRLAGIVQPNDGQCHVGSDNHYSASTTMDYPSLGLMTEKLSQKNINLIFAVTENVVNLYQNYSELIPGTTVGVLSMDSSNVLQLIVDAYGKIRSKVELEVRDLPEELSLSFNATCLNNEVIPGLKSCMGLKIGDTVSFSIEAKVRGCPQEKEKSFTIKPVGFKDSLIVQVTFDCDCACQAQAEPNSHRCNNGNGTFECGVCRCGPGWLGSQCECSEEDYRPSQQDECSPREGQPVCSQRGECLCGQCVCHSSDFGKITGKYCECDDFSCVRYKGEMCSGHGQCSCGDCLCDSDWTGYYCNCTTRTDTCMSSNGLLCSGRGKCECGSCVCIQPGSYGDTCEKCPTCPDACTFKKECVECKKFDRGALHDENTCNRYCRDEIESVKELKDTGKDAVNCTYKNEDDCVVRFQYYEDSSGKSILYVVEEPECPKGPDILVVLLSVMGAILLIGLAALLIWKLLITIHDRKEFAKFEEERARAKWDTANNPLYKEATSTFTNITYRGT
row,SMILES,INHIBITION @ 250 uM RECEPTOR allBb3 SUBSTRATE FIBRINOGEN
1,"Nc1cccc(C(=O)NC2C(OCc3ccccc3)OC(CO)C(O)C2OCc2ccc(C(=O)O)cc2)c1 (single isomer, unassigned) [Compound 101]",− (0% to 35% inhibition at 250 micromolar)
2,"Nc1cccc(C(=O)NC2C(OCc3ccccc3)OC(CO)C(O)C2OCc2ccc(C(=O)O)cc2)c1 (single isomer, unassigned) [Compound 102]",− (0% to 35% inhibition at 250 micromolar)
3,"CCC(=O)NC1C(OCc2ccccc2)OC(COCc2cccc(N)c2)C(O)C1OCc1ccc(C(=O)O)cc1 (single isomer, unassigned) [Compound 103]",++ (61% to 80% inhibition at 250 micromolar)
4,"CCC(=O)NC1C(OCc2ccccc2)OC(COCc2cccc(N)c2)C(O)C1OCc1ccc(C(=O)O)cc1 (single isomer, unassigned) [Compound 104]",− (0% to 35% inhibition at 250 micromolar)
5,"COCC1OC(OCc2ccccc2)C(NC(=O)c2ccc(C(=O)O)cc2)C(OCc2cccc(N)c2)C1O (single isomer, unassigned) [Compound 105]",+++ (81% to 100% inhibition at 250 micromolar)
6,"COCC1OC(OCc2ccccc2)C(NC(=O)c2ccc(C(=O)O)cc2)C(OCc2cccc(N)c2)C1O (single isomer, unassigned) [Compound 106]",+ (36% to 60% inhibition at 250 micromolar)
7,"CCOCC1OC(OCc2ccccc2)C(NC(=O)c2ccc(C(=O)O)cc2)C(OCc2cccc(N)c2)C1O (single isomer, unassigned) [Compound 107]",− (0% to 35% inhibition at 250 micromolar)
8,"CCOCC1OC(OCc2ccccc2)C(NC(=O)c2ccc(C(=O)O)cc2)C(OCc2cccc(N)c2)C1O (single isomer, unassigned) [Compound 108]",− (0% to 35% inhibition at 250 micromolar)
9,"Nc1cccc(COC2C(O)C(CO)OC(OCc3ccccc3)C2NC(=O)c2ccc(C(=O)O)cc2)c1 (single isomer, unassigned) [Compound 109]",− (0% to 35% inhibition at 250 micromolar)
10,"CCC(=O)NC1C(OCc2ccccc2)OC(COCC(=O)O)C(O)C1OCc1cccc(N)c1 (single isomer, unassigned) [Compound 110]",− (0% to 35% inhibition at 250 micromolar)
11,"CCC(=O)NC1C(OCc2ccccc2)OC(COCc2ccc(C(=O)O)cc2)C(O)C1OCc1cccc(N)c1 (single isomer, unassigned) [Compound 111]",− (0% to 35% inhibition at 250 micromolar)
12,"CCC(=O)NC1C(OCc2ccccc2)OC(COCc2ccc(C(=O)O)cc2)C(O)C1OCc1cccc(N)c1 (single isomer, unassigned) [Compound 112]",− (0% to 35% inhibition at 250 micromolar)

# Same assay, conditions: substrate vitronectin, human platelet membrane preparation
row,SMILES,INHIBITION 250 uM RECEPTOR allBb3 SUBSTRATE VITRONECTIN
1,"Nc1cccc(C(=O)NC2C(OCc3ccccc3)OC(CO)C(O)C2OCc2ccc(C(=O)O)cc2)c1 (single isomer, unassigned) [Compound 101]",++ (61% to 80% inhibition at 250 micromolar)
2,"Nc1cccc(C(=O)NC2C(OCc3ccccc3)OC(CO)C(O)C2OCc2ccc(C(=O)O)cc2)c1 (single isomer, unassigned) [Compound 102]",+++ (81% to 100% inhibition at 250 micromolar)
3,"CCC(=O)NC1C(OCc2ccccc2)OC(COCc2cccc(N)c2)C(O)C1OCc1ccc(C(=O)O)cc1 (single isomer, unassigned) [Compound 103]",+++ (81% to 100% inhibition at 250 micromolar)
4,"CCC(=O)NC1C(OCc2ccccc2)OC(COCc2cccc(N)c2)C(O)C1OCc1ccc(C(=O)O)cc1 (single isomer, unassigned) [Compound 104]",+++ (81% to 100% inhibition at 250 micromolar)
5,"COCC1OC(OCc2ccccc2)C(NC(=O)c2ccc(C(=O)O)cc2)C(OCc2cccc(N)c2)C1O (single isomer, unassigned) [Compound 105]",++ (61% to 80% inhibition at 250 micromolar)
6,"COCC1OC(OCc2ccccc2)C(NC(=O)c2ccc(C(=O)O)cc2)C(OCc2cccc(N)c2)C1O (single isomer, unassigned) [Compound 106]",+++ (81% to 100% inhibition at 250 micromolar)
7,"CCOCC1OC(OCc2ccccc2)C(NC(=O)c2ccc(C(=O)O)cc2)C(OCc2cccc(N)c2)C1O (single isomer, unassigned) [Compound 107]",+++ (81% to 100% inhibition at 250 micromolar)
8,"CCOCC1OC(OCc2ccccc2)C(NC(=O)c2ccc(C(=O)O)cc2)C(OCc2cccc(N)c2)C1O (single isomer, unassigned) [Compound 108]",+++ (81% to 100% inhibition at 250 micromolar)
9,"Nc1cccc(COC2C(O)C(CO)OC(OCc3ccccc3)C2NC(=O)c2ccc(C(=O)O)cc2)c1 (single isomer, unassigned) [Compound 109]",+++ (81% to 100% inhibition at 250 micromolar)
10,"CCC(=O)NC1C(OCc2ccccc2)OC(COCC(=O)O)C(O)C1OCc1cccc(N)c1 (single isomer, unassigned) [Compound 110]",+++ (81% to 100% inhibition at 250 micromolar)
11,"CCC(=O)NC1C(OCc2ccccc2)OC(COCc2ccc(C(=O)O)cc2)C(O)C1OCc1cccc(N)c1 (single isomer, unassigned) [Compound 111]",+++ (81% to 100% inhibition at 250 micromolar)
12,"CCC(=O)NC1C(OCc2ccccc2)OC(COCc2ccc(C(=O)O)cc2)C(O)C1OCc1cccc(N)c1 (single isomer, unassigned) [Compound 112]",+++ (81% to 100% inhibition at 250 micromolar)

# Biological target: T2, αVβ3 integrin (Homo sapiens, UniProt P05106+P06756)
# T2 construct: the cell line WM-115 was used as a source of αVβ3 integrin; endogenous in cells; host or cells: WM-115 cell line
# Assay: ELISA: inhibition of binding of αVβ3 integrin (source WM-115 cell line) to coated extracellular matrix protein
# Conditions: WM-115 cell line as integrin source
# Method in brief: as §1
# T2 sequence (P06756 31-889 limits assumed): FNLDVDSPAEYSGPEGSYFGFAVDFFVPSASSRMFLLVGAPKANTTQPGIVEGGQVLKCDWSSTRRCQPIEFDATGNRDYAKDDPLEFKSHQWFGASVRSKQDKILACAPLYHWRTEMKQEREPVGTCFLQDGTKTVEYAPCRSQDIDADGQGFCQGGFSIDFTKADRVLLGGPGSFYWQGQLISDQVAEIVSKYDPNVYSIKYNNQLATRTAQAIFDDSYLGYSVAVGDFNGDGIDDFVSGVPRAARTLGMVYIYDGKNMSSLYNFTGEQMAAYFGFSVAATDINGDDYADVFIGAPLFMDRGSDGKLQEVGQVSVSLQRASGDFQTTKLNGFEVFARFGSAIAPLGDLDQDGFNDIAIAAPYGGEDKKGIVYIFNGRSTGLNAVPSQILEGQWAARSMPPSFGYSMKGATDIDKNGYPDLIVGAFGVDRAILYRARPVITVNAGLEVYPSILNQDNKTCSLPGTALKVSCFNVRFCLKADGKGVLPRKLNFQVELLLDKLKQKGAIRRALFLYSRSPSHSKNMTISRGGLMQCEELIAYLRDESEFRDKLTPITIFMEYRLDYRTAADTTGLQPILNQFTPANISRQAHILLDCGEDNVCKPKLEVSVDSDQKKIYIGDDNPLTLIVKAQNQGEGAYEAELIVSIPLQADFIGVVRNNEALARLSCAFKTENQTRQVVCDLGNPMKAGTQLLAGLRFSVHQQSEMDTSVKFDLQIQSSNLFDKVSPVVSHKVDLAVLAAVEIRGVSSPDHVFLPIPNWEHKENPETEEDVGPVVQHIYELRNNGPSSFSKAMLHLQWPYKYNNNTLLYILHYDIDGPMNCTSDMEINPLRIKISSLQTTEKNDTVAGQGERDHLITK
# T2 sequence (P06756 891-1048 partner limits assumed): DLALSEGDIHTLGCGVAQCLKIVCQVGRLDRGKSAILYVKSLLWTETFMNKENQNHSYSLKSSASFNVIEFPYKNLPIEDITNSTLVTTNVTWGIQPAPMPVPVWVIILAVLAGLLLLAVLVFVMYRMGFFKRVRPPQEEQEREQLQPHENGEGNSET
# T2 sequence (P05106 27-788): as the sequence (P05106 27-788) above
row,SMILES,INHIBITION 250 uM RECEPTOR aVb3 SUBSTRATE FIBRINOGEN
1,"Nc1cccc(C(=O)NC2C(OCc3ccccc3)OC(CO)C(O)C2OCc2ccc(C(=O)O)cc2)c1 (single isomer, unassigned) [Compound 101]",+ (36% to 60% inhibition at 250 micromolar)
2,"Nc1cccc(C(=O)NC2C(OCc3ccccc3)OC(CO)C(O)C2OCc2ccc(C(=O)O)cc2)c1 (single isomer, unassigned) [Compound 102]",+++ (81% to 100% inhibition at 250 micromolar)
3,"CCC(=O)NC1C(OCc2ccccc2)OC(COCc2cccc(N)c2)C(O)C1OCc1ccc(C(=O)O)cc1 (single isomer, unassigned) [Compound 103]",+++ (81% to 100% inhibition at 250 micromolar)
4,"CCC(=O)NC1C(OCc2ccccc2)OC(COCc2cccc(N)c2)C(O)C1OCc1ccc(C(=O)O)cc1 (single isomer, unassigned) [Compound 104]",− (0% to 35% inhibition at 250 micromolar)
5,"COCC1OC(OCc2ccccc2)C(NC(=O)c2ccc(C(=O)O)cc2)C(OCc2cccc(N)c2)C1O (single isomer, unassigned) [Compound 105]",− (0% to 35% inhibition at 250 micromolar)
6,"COCC1OC(OCc2ccccc2)C(NC(=O)c2ccc(C(=O)O)cc2)C(OCc2cccc(N)c2)C1O (single isomer, unassigned) [Compound 106]",− (0% to 35% inhibition at 250 micromolar)
7,"CCOCC1OC(OCc2ccccc2)C(NC(=O)c2ccc(C(=O)O)cc2)C(OCc2cccc(N)c2)C1O (single isomer, unassigned) [Compound 107]",− (0% to 35% inhibition at 250 micromolar)
8,"CCOCC1OC(OCc2ccccc2)C(NC(=O)c2ccc(C(=O)O)cc2)C(OCc2cccc(N)c2)C1O (single isomer, unassigned) [Compound 108]",− (0% to 35% inhibition at 250 micromolar)
9,"Nc1cccc(COC2C(O)C(CO)OC(OCc3ccccc3)C2NC(=O)c2ccc(C(=O)O)cc2)c1 (single isomer, unassigned) [Compound 109]",− (0% to 35% inhibition at 250 micromolar)
10,"CCC(=O)NC1C(OCc2ccccc2)OC(COCC(=O)O)C(O)C1OCc1cccc(N)c1 (single isomer, unassigned) [Compound 110]",− (0% to 35% inhibition at 250 micromolar)
11,"CCC(=O)NC1C(OCc2ccccc2)OC(COCc2ccc(C(=O)O)cc2)C(O)C1OCc1cccc(N)c1 (single isomer, unassigned) [Compound 111]",− (0% to 35% inhibition at 250 micromolar)
12,"CCC(=O)NC1C(OCc2ccccc2)OC(COCc2ccc(C(=O)O)cc2)C(O)C1OCc1cccc(N)c1 (single isomer, unassigned) [Compound 112]",+++ (81% to 100% inhibition at 250 micromolar)
